Results reported in patent publication US9840475B2, “N-(substituted)-5-fluoro-4-imino-3-methyl-2-oxo-3,4-dihydropyrimidine-1(2H)-carboxamide derivatives” (Adama Makhteshim Ltd., priority 2012, dated 2017).
Where two headings read alike, the source gives them in different places.

How the values were obtained:
[1] = tested on: Mycosphaerella graminicola; anamorph: Septoria tritici; Bayer code SEPTTR; assay: Evaluation of fungicidal activity: leaf blotch of wheat (SEPTTR), disease control on wheat plants; assay type: in vivo; conditions: Zymoseptoria tritici
Protocol: Evaluation of Fungicidal Activity: Leaf Blotch of Wheat (Mycosphaerella graminicola; anamorph: Septoria tritici; Bayer code […]) Wheat plants (variety Yuma) were grown from seed in a greenhouse in 50% mineral soil/50% soil-less Metro mix until the first leaf was fully emerged, with 7-10 seedlings per pot. These plants were inoculated with an aqueous spore suspension of Septoria tritici either prior to or after fungicide treatments. After inoculation the plants were kept in 100% relative humidity (one day in a dark dew chamber followed by two to three days in a lighted dew chamber) to permit spores to germinate and infect the leaf. The plants were then transferred to a greenhouse for disease to develop. The following table presents the activity of typical compounds of the present disclosure when evaluated in these experiments. The effectiveness of the test compounds in controlling disease was determined by assessing the severity of disease on treated plants, then converting the severity to percent control based on the level of disease on untreated, inoculated plants.

[2] = 24 h, 100 ppm, one-day protectant, wheat plants (variety Yuma), percent control vs untreated, inoculated plants, read-out: SEPTTR 100 PPM 1DP (One-Day Protectant activity, % disease control rating)
[3] = 72 h, 100 ppm, three-day curative, wheat plants (variety Yuma), percent control vs untreated, inoculated plants, read-out: SEPTTR 100 PPM 3DC (Three-Day Curative activity, % disease control rating)
[4] = 24 h, read-out: SEPTTR 100 PPM 1DP (One-Day Protectant activity, % disease control rating)
[5] = 72 h, read-out: SEPTTR 100 PPM 3DC (Three-Day Curative activity, % disease control rating)

| Structure (SMILES) | pest or weed control at 100 ppm [1, 2] [%] | pest or weed control at 100 ppm [1, 3] [%] | melting point [°C] | pest or weed control at 100 ppm [1, 4] [%] | pest or weed control at 100 ppm [1, 5] [%] |
| --- | --- | --- | --- | --- | --- |
| COc1ccc(OC)c(NC(=O)n2cc(F)c(=N)n(C)c2=O)c1 [Compound 17] | 76 to 100 | 76 to 100 | 168.3 to 169.6 |  |  |
| Cn1c(=N)c(F)cn(C(=O)Nc2ccsc2)c1=O [Compound 7] | 51 to 75 | 76 to 100 | 194.2 to 195.2 |  |  |
| Cn1c(=N)c(F)cn(C(=O)Nc2ccc(C(F)(F)F)cc2)c1=O [Compound 11] | 0 to 25 | 0 to 25 | 192.4 to 195.7 |  |  |
| Cn1c(=N)c(F)cn(C(=O)Nc2cccc(C#N)c2)c1=O [Compound 15] | 0 to 25 | 26 to 50 | 204.1 to 205.5 |  |  |
| Cn1c(=N)c(F)cn(C(=O)Nc2ccc(F)cc2)c1=O [Compound 13] | 0 to 25 | 26 to 50 | 194 to 196 |  |  |
| Cn1c(=N)c(F)cn(C(=O)Nc2cccs2)c1=O [Compound 8] | 51 to 75 | 76 to 100 | 200.3 to 201.8 |  |  |
| COc1ccc(NC(=O)n2cc(F)c(=N)n(C)c2=O)cc1 [Compound 4] |  |  | 194.8 to 195.4 | 51 to 75 | 26 to 50 |
| Cc1ccc(NC(=O)n2cc(F)c(=N)n(C)c2=O)cc1 [Compound 1] | 51 to 75 | 0 to 25 | 184.7 to 186.2 |  |  |
| Cn1c(=N)c(F)cn(C(=O)Nc2ccc(Cl)cc2)c1=O [Compound 2] |  |  | 199 to 200.8 | 26 to 50 | 0 to 25 |
| Cn1c(=N)c(F)cn(C(=O)Nc2ccccc2)c1=O |  |  | 192.3 to 194.4 |  |  |
| Cn1c(=N)c(F)cn(C(=S)Nc2ccc(Cl)cc2)c1=O [Compound 6, N-(4-chlorophenyl)-5-fluoro-4-imino-3-methyl-2-oxo-3,4-dihydropyrimidine-1(2H)-carbothioamide] | 76 to 100 | 76 to 100 |  |  |  |
| Cc1ccc(NC(=O)n2cc(F)c(=N)n(C)c2=O)cc1Cl [Compound 16] | 76 to 100 | 26 to 50 | 192.9 to 193.5 |  |  |
| Cn1c(=N)c(F)cn(C(=S)Nc2cc(Cl)cc(Cl)c2)c1=O [Compound 22] | 51 to 75 | 26 to 50 |  |  |  |
| Cc1cc(NC(=O)n2cc(F)c(=N)n(C)c2=O)c(C)cc1Cl [Compound 20] | 51 to 75 | 26 to 50 | 210 to 213 |  |  |
| Cc1ccc(NC(=S)n2cc(F)c(=N)n(C)c2=O)cc1 [Compound 5] |  |  |  | 76 to 100 | 76 to 100 |
| Cn1c(=N)c(F)cn(C(=O)Nc2cc(Cl)cc(Cl)c2)c1=O [Compound 14] |  |  | 210 to 213.1 | 0 to 25 | 0 to 25 |
| Cn1c(=N)c(F)cn(C(=O)Nc2cc(F)cc(F)c2)c1=O [Compound 3, N-(3,5-difluorophenyl)-5-fluoro-4-imino-3-methyl-2-oxo-3,4-dihydropyrimidine-1(2H)-carboxamide] | 0 to 25 | 51 to 75 | 203 to 204.5 |  |  |
| Cn1c(=N)c(F)cn(C(=O)Nc2cccc(F)c2)c1=O [Compound 12] | 51 to 75 | 0 to 25 | 197.5 to 199.4 |  |  |
| COc1cccc(NC(=O)n2cc(F)c(=N)n(C)c2=O)c1 [Compound 21] | 0 to 25 | 0 to 25 | 195.5 to 196.3 |  |  |
| COc1ccccc1NC(=O)n1cc(F)c(=N)n(C)c1=O [Compound 9] | 26 to 50 | 76 to 100 | 168.9 to 170 |  |  |
| COc1ccc(NC(=O)n2cc(F)c(=N)n(C)c2=O)cc1F [Compound 19] | 76 to 100 | 26 to 50 | 194.3 to 196.3 |  |  |
| Cn1c(=N)c(F)cn(C(=O)Nc2ccc(F)cc2Cl)c1=O [Compound 18] | 51 to 75 | 0 to 25 | 203.6 to 205.5 |  |  |
| Cc1cccc(NC(=O)n2cc(F)c(=N)n(C)c2=O)c1 [Compound 10] | 0 to 25 | 51 to 75 | 188.5 to 192.4 |  |  |
